Experimental data from patent US8592485B2, “Methods and pharmaceutical compositions for treating the animal central nervous system for psychiatric disorders” (HealthPartners Research Foundation, priority 2010, dated 2013).

Experiments:
[1] = Intranasal delivery of DFO (bound to 59Fe) to rats, tissue concentrations by scintillation counting
Method: Delivery of intranasal DFO to the upper one-third of the nasal cavity has been assessed by administering 6 mg DFO bound to 6 μCi of ^59Fe (as ^59FeCl3) to rats under anesthesia. The IN dose in 60 μL was administered as 6 μL drops over twenty minutes. Following delivery, tissues were removed for analysis.

GSK3b = assay: Hippocampal pGSK3b/GSK3b ratio in C57 mice after DFO (western blot, ELISA); assay type: in vivo; settings: hippocampus (FIG. 1A); for higher ratio of pGSK3b/GSK3b than PBS mice: upper third of nasal cavity, five days/week for four weeks
Method: The study method providing results in FIGS. 1A and 1B comprised normal C57 mice which were treated with DFO by administration to the upper third of the nasal cavity, thereby delivering the DFO directly to the CNS by bypassing the blood-brain barrier. Treatment groups consisted of 1% DFO, 10% DFO and saline. Mice were treated five days/week for four weeks. Mice were then dosed a final time, euthanized after 30 minutes, brain tissues collected an analyzed for biochemical changes. Protein extraction was achieved by homogenization of frozen brain tissues in 5 volumes of ice-cold RIPA buffer supplemented with protease inhibitor cocktail and phosphatase inhibitor cocktail. Homogenates were centrifuged at 20,000×g for 20 minutes at 4C. Supernatant was collected from the cortex, diencephalon and hippocampus and stored at −70C until analysis by western blot and ELISA.

[2] = cited from earlier work
[3] = cited from earlier work; remark: listed apart in the source

Compound	blood concentrations of ferrioxamine ([1]; 5 minute intervals from dosing up to 25 minutes post-dose)	labeled ferrioxamine in brain by scintillation counting ([1]; intranasal 6 mg DFO bound to 6 uCi 59Fe)	higher ratio of pGSK3b/GSK3b than PBS mice (GSK3b; 1% DFO)	higher ratio of pGSK3b/GSK3b of 10% DFO mice than 1% DFO mice (GSK3b; 10% DFO versus 1% DFO, intranasal)	higher ratio of pGSK3b/GSK3b than PBS mice (GSK3b; 10% DFO)	effect of injection of an intravenous bolus [2]	typical plasma half-life ([3]; humans, intravenous)	crossing of the blood-brain barrier ([3]; intravenously or systemically administered)
CC(=O)N([O-])CCCCCNC(=O)CCC(=O)N([O-])CCCCCNC(=O)CCC(=O)N([O-])CCCCCN.[Fe+3] [ferrioxamine]	quite low	detected throughout the brain	–	–	–	–	–	–
CC(=O)N(O)CCCCCNC(=O)CCC(=O)N(O)CCCCCNC(=O)CCC(=O)N(O)CCCCCN [DFO, deferoxamine]	–	–	99.8%	57.4%	214%	acute hypotension	less than 10 minutes	does not efficiently or effectively cross the blood-brain barrier
